Experimental data: patent publication US11708359B2, “Monoacylglycerol lipase modulators” (Janssen Pharmaceutica NV, priority 2020, dated 2023)

Target: human MGL from HeLa cells (Homo sapiens (Human), UniProt Q99685)
Test: MGL in vitro activity assay ([glycerol-1,3-3H]-oleoyl glycerol cleavage, activated carbon filter)
Assay type: biochemical
Conditions: 300 nM [Glycerol-1,3-3H]-oleoyl glycerol, endogenously expressed MGL from HeLa cells, one hour incubation; read-out: MGL IC50
Experimental: The assay consists of combining endogenously expressed MGL from HeLa cells with test compounds, adding[glycerol-1,3-^3H]-oleoyl glycerol, incubating for one hour, and then measuring the amount of cleaved[1,3-^3H]-glycerol that passes through an activated carbon filter. The amount of cleaved, tritiated glycerol passing through the carbon filter is proportional to the activity of the MGL enzyme in a particular well/test condition.
Standard conditions for this assay combine 300 nM [Glycerol-1,3-^3H]-oleoyl glycerol with human MGL from HeLa cells and test compounds for one hour, after which the reaction is filtered through activated carbon and tritium is measured in the flow through. […] MGL is the predominant hydrolase in HeLa cells/cell homogenates.

Sequence of human MGL from HeLa cells (Q99685 whole entry): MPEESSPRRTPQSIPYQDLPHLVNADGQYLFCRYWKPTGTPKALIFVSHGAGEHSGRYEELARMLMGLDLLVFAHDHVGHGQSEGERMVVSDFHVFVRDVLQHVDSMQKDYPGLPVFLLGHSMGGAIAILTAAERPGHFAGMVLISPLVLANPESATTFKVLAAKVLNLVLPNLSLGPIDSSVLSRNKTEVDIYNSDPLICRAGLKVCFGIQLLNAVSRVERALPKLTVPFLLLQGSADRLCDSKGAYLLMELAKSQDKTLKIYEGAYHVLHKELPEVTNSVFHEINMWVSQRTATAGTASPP

IC50 | SMILES
42 nM | O=C1CCC2(CC(C(=O)N3CC[C@@]4(c5ccc(OC(F)(F)F)cc5)C[C@H]4C3)C2)N1 (relative stereo) [Example 121, (2r,4*5)-2-((1*R,6*S)-6-(4-(Trifluoromethoxy)phenyl)-3-azabicyclo[4.1.0]heptane-3-carbonyl)-5-azaspiro[3.4]octan-6-one]
12 nM | O=C1CCC2(CC(C(=O)N3CC[C@]4(c5ccc(OC(F)(F)F)cc5)C[C@@H]4C3)C2)N1 (relative stereo) [Example 122, (2r,4*R)-2-((1*S,6*R)-6-(4-(Trifluoromethoxy)phenyl)-3-azabicyclo[4.1.0]heptane-3-carbonyl)-5-azaspiro[3.4]octan-6-one]
5 nM | CC(C)c1cccc([C@@]23C[C@@H]2CN(C(=O)[C@H]2C[C@]4(COC(=O)N4)C2)C3)c1 (stereo in doubt) [Example 7, (2s,4*5)-2-((1*R,5*5)-1-(3-Isopropylphenyl)-3-azabicyclo[3.1.0]hexane-3-carbonyl)-7-oxa-5-azaspiro[3.4]octan-6-one]
11 nM | CC(C)c1cccc([C@]23C[C@H]2CN(C(=O)[C@H]2C[C@]4(COC(=O)N4)C2)C3)c1 (stereo in doubt) [Example 8, (2s,4*R)-2-((1*S,5*R)-1-(3-Isopropylphenyl)-3-azabicyclo[3.1.0]hexane-3-carbonyl)-7-oxa-5-azaspiro[3.4]octan-6-one]
2.3 nM | CC(C)c1ccc([C@@]23C[C@@H]2CN(C(=O)[C@H]2C[C@]4(COC(=O)N4)C2)C3)cc1 (stereo in doubt) [Example 10, (2s,4*5)-2-((1*R,5*S)-1-(4-Isopropylphenyl)-3-azabicyclo[3.1.0]hexane-3-carbonyl)-7-oxa-5-azaspiro[3.4]octan-6-one]
2.3 nM | CC(C)c1ccc([C@]23C[C@H]2CN(C(=O)[C@H]2C[C@]4(COC(=O)N4)C2)C3)cc1 (stereo in doubt) [Example 11, (2s,4*R)-2-((1*S,5*R)-1-(4-Isopropylphenyl)-3-azabicyclo[3.1.0]hexane-3-carbonyl)-7-oxa-5-azaspiro[3.4]octan-6-one]
23 nM | CC(C)(C)c1ccc([C@@]23C[C@@H]2CN(C(=O)[C@H]2C[C@]4(CCC(=O)N4)C2)C3)cc1 (stereo in doubt) [Example 14, (2r,4*S)-2-((1*R,5*5)-1-(4-(tert-Butyl)phenyl)-3-azabicyclo[3.1.0]hexane-3-carbonyl)-5-azaspiro[3.4]octan-6-one]
12 nM | CC(C)(C)c1ccc([C@]23C[C@H]2CN(C(=O)[C@H]2C[C@]4(CCC(=O)N4)C2)C3)cc1 (stereo in doubt) [Example 15, (2r,4*R)-2-((1*S,5*R)-1-(4-(tert-Butyl)phenyl)-3-azabicyclo[3.1.0]hexane-3-carbonyl)-5-azaspiro[3.4]octan-6-one]
32 nM | Cc1cccc([C@@]23CCN(C(=O)[C@H]4C[C@]5(COC(=O)N5)C4)C[C@@H]2C3)c1 (stereo in doubt) [Example 45, (2s,4*5)-2-((1*R,6*S)-6-(m-Tolyl)-3-azabicyclo[4.1.0]heptane-3-carbonyl)-7-oxa-5-azaspiro[3.4]octan-6-one]
21 nM | Cc1ccc([C@]23CCN(C(=O)[C@H]4C[C@]5(COC(=O)N5)C4)C[C@H]2C3)cc1F (stereo in doubt) [Example 47, (2s,4*R)-2-((1*S,6*R)-6-(3-Fluoro-4-methylphenyl)-3-azabicyclo[4.1.0]heptane-3-carbonyl)-7-oxa-5-azaspiro[3.4]octan-6-one]
1.3 nM | Cc1ccc([C@@]23CCN(C(=O)[C@H]4C[C@]5(COC(=O)N5)C4)C[C@@H]2C3)cc1F (stereo in doubt) [Example 48, (2s,4*5)-2-((1*R,6*5)-6-(3-Fluoro-4-methylphenyl)-3-azabicyclo[4.1.0]heptane-3-carbonyl)-7-oxa-5-azaspiro[3.4]octan-6-one]
0.76 nM | CC(C)(C)c1cccc([C@H]2[C@@H]3CN(C(=O)[C@H]4C[C@]5(COC(=O)N5)C4)C[C@@]32C)c1 (stereo in doubt) [Example 93, (rac)-(2s,4*5)-2-((1*R,5*S,6*R)-6-(3-(tert-Butyl)phenyl)-1-methyl-3-azabicyclo[3.1.0]hexane-3-carbonyl)-7-oxa-5-azaspiro[3.4]octan-6-one]
7.5 nM | CC1(c2ccc([C@@]34C[C@@H]3CN(C(=O)[C@H]3C[C@]5(CCC(=O)N5)C3)C4)cc2)CC1 (stereo in doubt) [Example 95, (2r,4*S)-2-((1*R,5*5)-1-(4-(1-Methylcyclopropyl)phenyl)-3-azabicyclo[3.1.0]hexane-3-carbonyl)-5-azaspiro[3.4]octan-6-one]
8.5 nM | CC1(c2ccc([C@]34C[C@H]3CN(C(=O)[C@H]3C[C@]5(CCC(=O)N5)C3)C4)cc2)CC1 (stereo in doubt) [Example 96, (2r,4*R)-2-((1*S,5*R)-1-(4-(1-Methylcyclopropyl)phenyl)-3-azabicyclo[3.1.0]hexane-3-carbonyl)-5-azaspiro[3.4]octan-6-one]
0.64 nM | CC(C)(C)c1cccc([C@H]2[C@@H]3CN(C(=O)[C@H]4C[C@]5(COC(=O)N5)C4)C[C@@]32C)c1 (stereo in doubt) [Example 99, (2s,4*5)-2-((1*R,5*S,6*R)-6-(3-(tert-Butyl)phenyl)-1-methyl-3-azabicyclo[3.1.0]hexane-3-carbonyl)-7-oxa-5-azaspiro[3.4]octan-6-one]
8.3 nM | CC(C)(C)c1cccc([C@@H]2[C@H]3CN(C(=O)[C@H]4C[C@]5(COC(=O)N5)C4)C[C@]32C)c1 (stereo in doubt) [Example 100, (2s,4*R)-2-((1*S,5*R,6*5)-6-(3-(tert-Butyl)phenyl)-1-methyl-3-azabicyclo[3.1.0]hexane-3-carbonyl)-7-oxa-5-azaspiro[3.4]octan-6-one]
21 nM | O=C1N[C@]2(CO1)C[C@H](C(=O)N1C[C@@H]3[C@H](C1)[C@H]3c1cccc(OC(F)(F)F)c1)C2 [Example 38, (2s,4S)-2-((1R,5S,6S)-6-(3-(Trifluoromethoxy)phenyl)-3-azabicyclo[3.1.0]hexane-3-carbonyl)-7-oxa-5-azaspiro[3.4]octan-6-one]
136 nM | O=C1N[C@]2(CO1)C[C@H](C(=O)N1CC[C@@]3(c4ccccc4)C[C@H]3C1)C2 [Example 40, (2s,4S)-2-((1R,6S)-6-Phenyl-3-azabicyclo[4.1.0]heptane-3-carbonyl)-7-oxa-5-azaspiro[3.4]octan-6-one]
9.6 nM | O=C1N[C@]2(CO1)C[C@H](C(=O)N1CC[C@]3(c4ccccc4)C[C@@H]3C1)C2 [Example 41, (2s,4R)-2-((1S,6R)-6-Phenyl-3-azabicyclo[4.1.0]heptane-3-carbonyl)-7-oxa-5-azaspiro[3.4]octan-6-one]
7.2 nM | CC(C)(C)c1cccc([C@H]2[C@@H]3CN(C(=O)[C@H]4C[C@]5(CCC(=O)N5)C4)C[C@@H]32)c1 [Example 79, (2r,4S)-2-((1R,5S,6S)-6-(3-(tert-Butyl)phenyl)-3-azabicyclo[3.1.0]hexane-3-carbonyl)-5-azaspiro[3.4]octan-6-one]
33 nM | O=C1N[C@]2(CO1)C[C@H](C(=O)N1C[C@@H]3[C@H](C1)[C@H]3c1ccc(C(F)(F)F)cc1)C2 [Example 80, (2s,4S)-2-((1R,5S,6S)-6-(4-(Trifluoromethyl)phenyl)-3-azabicyclo[3.1.0]hexane-3-carbonyl)-7-oxa-5-azaspiro[3.4]octan-6-one]
206 nM | O=C1CC[C@]2(C[C@H](C(=O)N3C[C@@H]4[C@H](C3)[C@H]4c3ccc(C(F)(F)F)cc3)C2)N1 [Example 81, (2r,4S)-2-((1R,5S,6S)-6-(4-(Trifluoromethyl)phenyl)-3-azabicyclo[3.1.0]hexane-3-carbonyl)-5-azaspiro[3.4]octan-6-one]
2.9 nM | CC(C)(C)c1ccc([C@H]2[C@@H]3CN(C(=O)[C@H]4C[C@]5(CCC(=O)N5)C4)C[C@@H]32)cc1 [Example 83, (2r,4S)-2-((1R,5S,6S)-6-(4-(tert-Butyl)phenyl)-3-azabicyclo[3.1.0]hexane-3-carbonyl)-5-azaspiro[3.4]octan-6-one]
5.5 nM | CC(C)c1cccc([C@H]2[C@@H]3CN(C(=O)[C@H]4C[C@]5(COC(=O)N5)C4)C[C@@H]32)c1 [Example 84, (2s,4S)-2-((1R,5S,6S)-6-(3-Isopropylphenyl)-3-azabicyclo[3.1.0]hexane-3-carbonyl)-7-oxa-5-azaspiro[3.4]octan-6-one]

SMILES | IC50
Cc1cccc([C@]23CCN(C(=O)[C@H]4C[C@]5(COC(=O)N5)C4)C[C@H]2C3)c1 (stereo in doubt) [Example 44, (2s,4*R)-2-((1*S,6*R)-6-(m-Tolyl)-3-azabicyclo[4.1.0]heptane-3-carbonyl)-7-oxa-5-azaspiro[3.4]octan-6-one] | 2.8 nM
O=C1N[C@]2(CO1)C[C@H](C(=O)N1CC[C@]3(c4cccc(OC(F)(F)F)c4)C[C@@H]3C1)C2 (stereo in doubt) [Example 50, (2s,4*R)-2-((1*S,6*R)-6-(3-(Trifluoromethoxy)phenyl)-3-azabicyclo[4.1.0]heptane-3-carbonyl)-7-oxa-5-azaspiro[3.4]octan-6-one] | 4.2 nM
O=C1N[C@]2(CO1)C[C@H](C(=O)N1CC[C@@]3(c4cccc(OC(F)(F)F)c4)C[C@H]3C1)C2 (stereo in doubt) [Example 51, (2s,4*S)-2-((1*R,6*S)-6-(3-(Trifluoromethoxy)phenyl)-3-azabicyclo[4.1.0]heptane-3-carbonyl)-7-oxa-5-azaspiro[3.4]octan-6-one] | 0.52 nM
